Reference: patent US11998600B2, “Enhancing the therapeutic activity of an immune checkpoint inhibitor” (MaineHealth, priority 2015, dated 2024)

What was measured:
Type in all cases: cell-based, human
Src = Src phosphorylation in endothelial cells attached to collagen peptides, Western blot; conditions: HUVEC; FIG. 7D
Method: Whole cell and CAM tissue lysates were collected in RIPA buffer supplemented with 1× protease inhibitor and 1× phosphatase inhibitor and were run on polyacrylamide gels using denaturing conditions. Prior to loading the gels, 6× sample buffer was added to each of the lysates (final concentration 1×) and boiled for five minutes. Twenty to 50 μg of total protein were loaded into each lane. […] Gels were run at 60 volts (v) until the dye front passed through the stacking gel, and then the voltage was increased to 100V for the remainder of the separation. Precision Plus protein standards (Bio-Rad) were used to visualize migration. Protein was transferred to nitrocellulose membranes using a wet tank system and blocked for 1 h using 10% non-fat dried milk in tris-buffered saline with 0.01% Tween-20 (TBS-T). […] Membranes were washed 3 times in TBS-T for five minutes. Blots were then incubated with HRP conjugated secondary antibodies (1:15000) in 1% non-fat milk in TBS-T for 1 h. Membranes were washed a second time as indicated above and exposed to chemiluminecent substrate for three minutes prior to exposure to autoradiography film in a dark room. Western blot bands were quantified using Image J software based on pixel intensity.

[1] = test system: endothelial cells (HUVECs); experiment: Actin stress fiber formation in HUVECs attached to collagen peptides (F-actin stain); conditions: FIG. 7G
Method: CAMs examined for accumulation of granulation tissue were harvested, fixed in 4% PFA and paraffin embedded and sectioned (4 μm) and stained with Giemsa. CAM tissues analyzed via immunofluorescence were harvested, embedded with OCT, snap frozen and sectioned ([…]). Frozen sections were fixed in 50% methanol/50% acetone, air dried and blocked with 2.5% BSA for 1 h at 37° C. For expression of the XL313 and XL166 epitopes as well as monocyte/macrophages, FGF-2 stimulated CAM tissues were stained with Mabs XL313, XL166 (50 μg/ml) or KUL1 (1:250) and then incubated with Alexa-488 labeled secondary antibodies (1:2000 dilution). […] Using a similar strategy, sections of RGD peptide-treated CAM tissues were analyzed for phosphorylated-P38MAPK in angiogenic vessels by co-incubation of anti-phospho-P38MAPK (1:50) and anti-vWf (1:500) antibodies. […]
Because both RGD containing peptides bind αvβ3 coupled with the differential effect of these peptides on angiogenesis and inflammation, it was determined whether the RGD peptides differentially altered αvβ3-mediated signaling. […] Therefore, the differential phosphorylation of these protein kinases following the early mechanical-mediated interactions with the RGD containing collagen peptides was assessed. […]

HUVEC = experiment: Cell proliferation assay, HUVEC; conditions: peptide 100 ng/ml, 24 hours; FIG. 8C
Method: (§1) HUVECs (WT, shYAP1 or control transfected) or HRMVECs were plated at 2,000 cells per well with complete EGM-2 media containing 2.0% FBS in the absence or presence of P-1, P-2 or P-C (100 ng/ml) and allowed to grow for 24 hours. Cell growth was monitored using a BrdU or MMT assay kits according to manufacturer's instructions. All assays were completed at least three times in triplicate wells.

[2] = test system: endothelial cells transduced with non-specific shRNA; experiment: Cell proliferation assay, endothelial cells transduced with non-specific shRNA; conditions: soluble peptide; FIG. 8G
Method: as §1
(§2) Raw cells were transfected with 1 μg of HuSH shRNA plasmids for collagen type I, alpha 2 using Amaxa cell line nucleofector kit V (program #T024). Constructs expressing 21-nucleotide short hairpin RNAs (shRNA) targeting human YAP (shYAP) or non-targeting control (shNT, Sigma-Aldrich, SHC002) were used. Humantargeting shYAP1 lentiviral shRNA was obtained from the Thermo Scientific RNAi consortium (TRCN0000107625). Constructs were packaged into lentivirus, pseudotyped with the vesicular stomatitis virus glycoprotein. Transduction was performed by incubating cells with lentivirus, and stably transduced cells were subsequently used for studies. All cell lines were verified by morphology and mouse and human YAP-specific PCR. […] Endothelial cells were certified mycoplasma-negative by PCR (Lonza), and primary cell cultures were used within the indicated passage numbers. Cells were transduced and selected using puromycin.
(§3) Endothelial cells with YAP specific or non-specific shRNAs were transduced.

[3] = test system: endothelial cells in which YAP was knocked down; experiment: Cell proliferation assay, endothelial cells transduced with YAP specific shRNA; conditions: soluble peptide (FIG. 8H) or VEGF 50 ng/ml (FIG. 8I)
Method: as §1, §2, §3

QGPRGDKGE [Mab P-2] was tested, and the “enhancement of Src phosphorylation, P-2 as compared to P-1” value (Src) was about 2 fold, the “actin stress fiber formation, P-2 as compared to P-1” value [1] was “accelerated actin stress fiber formation” and the “HUVEC growth with soluble peptide” value (HUVEC) was “significantly (P<0.05) enhanced endothelial cell growth”. The “endothelial cell growth in control transduced cells” value [2] was “enhanced growth” and the “endothelial cell growth in YAP knock down cells” value [3] was “failed to induce growth”.
